Test results as given in US8217061B2, “Polymorphs of sorafenib tosylate and sorafenib hemi-tosylate, and processes for preparation thereof” (Sicor Inc., priority 2008, dated 2012).

Tests used:
[1] = as reported in WO 2006/034797, page 2, lines 5-7; cited from earlier work
[2] = stability of crystalline form in water suspension (no hydrolysis of the PTSA moiety); type: physicochemical; conditions: about 20° C., stable = no hydrolysis of the PTSA moiety in water for at least about 48 hours
Method: Sorafenib hemi-tosylate Form A is a stable crystalline form in water suspensions at a temperature of about 20° C., making it ideal for use in the preparation of a dosage form, particularly when the process of wet granulation is used.

Row | Compound | stability of polymorphic form [1] | stability of crystalline form in water suspensions [2]
1 | CNC(=O)c1cc(Oc2ccc(NC(=O)Nc3ccc(Cl)c(C(F)(F)F)c3)cc2)ccn1.Cc1ccc(S(=O)(=O)O)cc1 [form II, 4-(4-{3-[4-chloro-3-(trifluoromethyl)phenyl]ureido}phenoxy)-N2-methylpyridine-2-carboxamide 4-methylbenzenesulfonate] | meta stable | –
2 | Sorafenib hemi-tosylate [Sorafenib hemi-tosylate Form A] | – | stable
